Experiments:
[1] = molecular target: T1, recombinant cPLA2 (Homo sapiens, UniProt P47712); assay: EnzChek phospholipase A2 fluorogenic assay (% activity) at 10 μM; type: biochemical; details: 10 μM compound
T1 construct: purchased US Biological P4074-03R
T1 sequence (P47712 1-749): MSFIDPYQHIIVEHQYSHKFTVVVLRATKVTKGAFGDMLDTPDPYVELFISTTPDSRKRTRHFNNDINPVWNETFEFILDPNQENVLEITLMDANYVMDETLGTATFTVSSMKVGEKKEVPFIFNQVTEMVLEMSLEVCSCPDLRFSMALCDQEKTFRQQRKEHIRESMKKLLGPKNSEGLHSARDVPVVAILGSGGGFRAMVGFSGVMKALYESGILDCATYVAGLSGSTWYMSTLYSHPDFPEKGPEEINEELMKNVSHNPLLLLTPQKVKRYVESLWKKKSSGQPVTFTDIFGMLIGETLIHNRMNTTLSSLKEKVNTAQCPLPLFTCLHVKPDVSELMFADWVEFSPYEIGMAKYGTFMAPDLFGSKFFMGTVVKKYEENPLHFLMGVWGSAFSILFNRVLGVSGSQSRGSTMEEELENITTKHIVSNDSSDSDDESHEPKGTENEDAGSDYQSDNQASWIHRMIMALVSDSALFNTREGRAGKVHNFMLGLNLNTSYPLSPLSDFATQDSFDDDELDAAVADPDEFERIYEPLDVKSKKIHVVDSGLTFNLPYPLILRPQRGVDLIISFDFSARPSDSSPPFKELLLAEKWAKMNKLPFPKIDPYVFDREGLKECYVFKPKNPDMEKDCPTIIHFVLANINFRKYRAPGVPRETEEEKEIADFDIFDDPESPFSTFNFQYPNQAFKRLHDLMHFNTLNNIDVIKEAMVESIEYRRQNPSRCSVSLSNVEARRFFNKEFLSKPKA
Method: The compounds were evaluated with a fluorogenic PLA2 assay kit (EnzChek® Phospholipase A2 Assay Kit, Catalog No: E10217) at a standard 10 μM concentration. Potential inhibitors were determined by their ability to lower cPLA2 activity to a greater extent than 1a.
The assay was conducted according to the manufacturer’s instruction (E10217, Molecular Probes) with slight modification. Briefly, substrate solution was separately prepared by mixing 5 μL of DOPG, 5 μL of DOPC and 5 μL of substrate respectively in 1.5 mL of 1X phospholipase A2 reaction buffer. The mixture was vortexed vigorously for 3 min before allowing to stand at room temperature for 1 h. 48 μL of 1X phospholipase A2 reaction buffer were added into each well of a 96-wells plate. This was followed by addition of 1 μL of recombinant cPLA2 (P4074-03R, US Biological) and 1 μL of 1 mM of the respective compound dissolved in DMSO. The final concentration of the test compound achieved is 10 μM. The reaction was initiated by adding 50 μL of the substrate solution and incubating at room temperature for 1 h. Fluorescence was measured using a Varioskan plate reader (Thermo Scientific, MA, USA) by exciting at 485 nm, while fluorescence emission was detected at 515 nm. Positive control was performed when 1 μL of test compound was replaced by vehicle DMSO. % activity was expressed as the mean value of duplicate wells from three experiments. % activity was calculated by the following formula1 %activity=fluorescenceoftestedwell−background/fluorescenceofpostivecontrol−background

[2] = Aqueous solubility (Multiscreen Solubility filter plates); type: physicochemical; details: aqueous buffer, kinetic from dmso stock; pH 7.4, 24 h, 25 °C
Method: Solubility determinations were carried out on Multiscreen® Solubility filter plates (Millipore-MSSLBPC10) from Millipore Corporation (MA, USA) following the protocol (PC2445EN00) from the manufacturer.

[3] = system: HEK293T cells; assay: MTS cell proliferation assay on HEK293T cells; type: cell-based, human; details: 10 μM, 48 h and 72 h, vs vehicle control
Method: To explore whether the inhibitors are cytotoxic, MTS assay were conducted on BV-2 cells, a murine microglial cell line derived from post-natal mouse cerebella, and HEK293T cells that are derived from human embryonic kidney. Both cell types were treated with 10 μM of 1a, 2g and 2i for 48 h and 72 h (Fig. 3A,B). Dimethyl sulfoxide (DMSO) vehicle control was also included as the compounds were dissolved in DMSO.
Cells were plated on a 96-wells plate and grown for 24 h to a density of 8000 cells per well for both HEK293T and BV-2 cells. Cells were cultured at 37 °C under a 5% CO2 environment in 100 μL of culture medium. Thereafter, the compound of interest dissolved in culture medium at a concentration of 10 μM was replaced into each well. DMSO was added as vehicle in the control group. 3 biological replicates were performed. The plates were then incubated at 37 °C with 5% CO2 for 48 h and 72 h. At each individual time point, 20 μL of CellTiter 96® AQueous One Solution (MTS reagent) was added into each well and re-incubated at 37 °C with 5% CO2 without light for 3 h. Colorimetric readings were taken using a Varioskan plate reader at 490 nm and analyzed. Three independent biological repeats with four technical replicates were performed.

- inhibition at 10 µM [1]: 88.5%
- remaining activity at 10 µM ([1]; 1 h, room temperature): 11.5 ± 1%
- solubility at 24 h [2]: > 100 µM
Structure (SMILES): CCCCC/C=C\C/C=C\C/C=C\C/C=C\CCCCC(=O)Nc1cccc(C(=O)O)c1 [2i]
- cytotoxicity (MTS) on HEK293T cells [3]: no significant toxic effects
